Values of other authors as cited in patent US20090252711A1, “Stem Cells And Methods Of Making And Using Stem Cells” (priority 2006, published 2009).

Assays:
cultured ASCs = settings: Cho et al. 2005
hTERT = settings: normal human cells; Hou et al.
neural stem cells = settings: Marin-Husstege et al. 2002
lung fibroblast cells = settings: Mukhopadhyay et al. 2005

| SMILES | differentiation towards the osteogenic (bone) lineage (cultured ASCs) | expression of the gene hTERT (hTERT) | differentiation of neural stem cells towards the astrocyte cell type (neural stem cells) | differentiation of neural stem cells towards the oligodendrocyte cell type (neural stem cells) | telomerase activity (lung fibroblast cells) |
| --- | --- | --- | --- | --- | --- |
| CCCC(CCC)C(=O)O [Valproic acid] | enhanced differentiation |  |  |  |  |
| CC(/C=C/C(=O)NO)=C\[C@@H](C)C(=O)c1ccc(N(C)C)cc1 [trichostatin A] | enhanced differentiation | upregulation | not towards the astrocyte cell type | blocked | induced |
